Experimental data as given in patent US9980936B2, “BH4 antagonists and methods related thereto” (Emory University, priority 2014, dated 2018).
Like-named read-outs stand apart in the source and are kept apart here.

Assays:
[1] = biological target: purified, human Bcl2 protein (Homo sapiens, UniProt P10415); test: competition fluorescence polarization assay (FITC-QDCMWSGFSA peptide); format: binding; conditions: 3 nM peptide, 6 nM Bcl2
Procedure: Thus, the change of mP reflects the interaction between the fluorescent-labeled peptide and the Bcl2 protein. Data (i.e. mP value) can be imported into Prism 3.0 to determine the dissociation constant (Kd) and the binding range for each peptide.
This interaction between Bcl2 and the peptide forms the basis for the fluorescence polarization assay.
The plate was mixed on a shaker for 1 min and incubated at room temperature for an additional 15 min. The polarization, as defined as mP units, was measured at room temperature with a fluorescence microplate reader (Wallace, Calif.). A negative control (DMSO, 3 nM peptide and assay buffer) and a positive control (DMSO, 3 nM peptide, 6 nM Bcl2 and assay buffer) were used to determine the range of the assay.

[2] = test system: BH4 domain deficient Bcl2 mutant protein (ΔBH4); test: fluorescence polarization assay with fluorescent Bak peptide; format: binding
Procedure: (§1) Purified recombinant WT and a panel of Bcl2 BH domain deletion mutant proteins (i.e. ΔBH1, ΔBH2, ΔBH3 and ΔBH4) were commercially obtained from ProteinX Lab. To directly measure BDA-2/Bcl2 binding, a fluorescence polarization assay with a fluorescent Bak peptide (5′-[…]) was performed.

[3] = biological target: Bcl2 (Homo sapiens, UniProt P10415); test: as above; format: binding
Chain of Bcl2 (P10415 whole entry): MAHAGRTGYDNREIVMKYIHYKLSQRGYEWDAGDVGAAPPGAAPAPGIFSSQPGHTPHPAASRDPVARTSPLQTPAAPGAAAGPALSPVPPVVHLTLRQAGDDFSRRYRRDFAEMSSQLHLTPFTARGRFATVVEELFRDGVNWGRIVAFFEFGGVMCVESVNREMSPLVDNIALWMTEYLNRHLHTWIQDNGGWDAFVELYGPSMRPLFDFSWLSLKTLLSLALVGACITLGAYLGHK
Procedure: as §1

[4] = test system: Bcl2 ΔBH1 deletion mutant protein; test: as above; format: binding
Procedure: as §1

[5] = test system: Bcl2 ΔBH2 deletion mutant protein; test: as above; format: binding
Procedure: as §1

[6] = test system: Bcl2 ΔBH3 deletion mutant protein; test: as above; format: binding
Procedure: as §1

[7] = biological target: Bfl-1/A1 (Homo sapiens, UniProt Q16548); test: binding to other Bcl2 family members
Chain of Bfl-1/A1 (Q16548 whole entry): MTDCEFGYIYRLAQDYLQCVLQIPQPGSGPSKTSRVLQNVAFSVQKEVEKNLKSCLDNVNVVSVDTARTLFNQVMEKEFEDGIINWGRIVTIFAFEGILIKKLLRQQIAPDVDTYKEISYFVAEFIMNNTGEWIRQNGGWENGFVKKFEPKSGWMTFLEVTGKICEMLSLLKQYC

[8] = test system: D10A, N11A, R12A, E13A, M16A, K17A, H20A and D31A Bcl2 mutants; test: competitive fluorescence polarization, BH4 single-site mutants; format: binding; conditions: single mutation at each individual residue
Text: (§2) A panel of Bcl2 mutants were generated within the BH4 domain at the specific residues that were identified by the initial docking simulations, including D10A, N11A, R12A, E13A, M16A, K17A, H20A and D31A Bcl2 mutants. A compound Bcl2 mutant D10A/N11A/R12A/E13A (AAAA) was created. Recombinant proteins of these mutants were generated for BDA-2/Bcl2 binding analysis using a competitive fluorescence polarization. […] Second, WT and all Bcl2 mutants were exogenously overexpressed in H1299 cells that express undetectable levels of endogenous Bcl2.

[9] = biological target: T1, Bcl2 mutant D10A/N11A/R12A/E13A (AAAA) (Homo sapiens, UniProt P10415, D10A/E13A/N11A/R12A); test: competitive fluorescence polarization, compound BH4 mutant; format: binding
T1 construct: made in house
T1 sequence (P10415 whole entry D10A/N11A/R12A/E13A): as the sequence (P10415 whole entry) above, with D10A, N11A, R12A, E13A counted along it
Text: as §2

[10] = test system: NSCLC cell lines A549 and H1299; SCLC cell lines DMS114 and H128; test: cell growth (SRB) and apoptosis (Annexin V/PI), lines with lower or undetectable Bcl2; format: cell-based; conditions: relatively lower or undetectable levels of endogenous Bcl2
Procedure: The effect of BDA-2 on cell growth and apoptosis was measured by SRB assay and Annexin V/PI binding, respectively, in both small cell lung cancer (SCLC) and non-small cell lung cancer (NSCLC) cell lines that express various levels of endogenous Bcl2.

[11] = test system: H1299 cells overexpressing WT or Bcl2 single site mutants; test: cell survival of H1299 cells overexpressing exogenous WT or single site Bcl2 mutants; format: cell-based
Text: as §2

[12] = test system: H1299 cells overexpressing Bcl2 AAAA mutant; test: cell survival of H1299 cells overexpressing compound Bcl2 AAAA mutant; format: cell-based
Text: as §2

[13] = test system: purified recombinant Bax; test: cell-free Bax activation (IP using 6A7 Bax antibody); format: biochemical
Procedure: BDA-366-induced Bcl2 conformational change was also confirmed by immunofluorescence using a Bcl2/BH3-domain specific antibody. […] To test this possibility, a 6A7 Bax antibody that only recognizes the conformationally changed, active, form of Bax was employed. Purified Bcl2 was treated with BDA-366 in lysis buffer for 1 h. The mixture of Bcl2/BDA-2 was then incubated with purified recombinant Bax for another 2 h, followed by IP using 6A7 antibody.
(§3) To further test whether the BH3 domain of Bcl2 is important for BDA-366 activation of Bax, purified recombinant WT and the BH3 deletion (ΔBH3) mutant Bcl2 proteins were incubated with purified Bax protein in the absence or presence of BDA-366, followed by IP with 6A7 antibody. […] To test this at the cellular or mitochondrial level, WT, ΔBH3 Bcl2 mutant and empty vector (pCIneo) were transfected into H1299 cells that express undetectable levels of endogenous Bcl2 but high levels of endogenous Bax. Cells or isolated mitochondria from these cells were treated with BDA-2, followed by IP with Bcl2 BH3 or 6A7 antibody, respectively.

[14] = test system: H460 cells; test: co-IP of Bcl2 with Bax and Bim; format: cell-based
Procedure: To test whether BDA-366-induced Bcl2 conformational change increases interaction between Bcl2 and Bax in cells, co-IP experiments were performed following treatment of H460 cells with BDA-366.

[15] = test system: H1299 cells or isolated mitochondria; test: H1299 cells or isolated mitochondria expressing WT, ΔBH3 Bcl2 or vector: IP and Cyt c release; format: cell-based
Procedure: as §3
To further test whether BDA-366 induces Cyt c release from mitochondria in a Bcl2 dependent fashion, mitochondria were isolated from H1299 cells expressing WT, ΔBH3 mutant Bcl2 or vector-only control. The isolated mitochondria were treated with BDA-366 (1 μM) for 30 min at 30° C. After centrifugation, Cyt c in the supernatant (i.e. Cyt c release) was analyzed by Western blot.

[16] = test system: wild type (WT) and Bax knockout (Bax−/−) MEF cells; test: apoptotic effect on WT and Bax knockout MEF cells; format: cell-based
Procedure: To further determine whether Bax is important for BDA-2 induction of apoptosis, the apoptotic effect of BDA-366 was tested on wild type (WT) and Bax knockout (Bax−/−) MEF cells. […] To test whether BDA-2/BH4 binding affects the IP3R/Bcl2 interaction and Ca2+ release, H460 cells were treated with increasing concentrations of BDA-366 for 24 h.

[17] = Procedure: In order to define the appropriate doses for in vivo experimentation, the maximum tolerated dose (MTD) was determined. Nu/Nu nude mice were treated in groups of 6 per dose level with increasing doses of BDA-366 (10-50 mg/kg/d) intraperitoneally (i.p.) for up to 12 days. […] Standard single-dose MTD treatment in normal C57BL/6 mice were measured. […] 10% of single dose MTD can usually be considered as the maximum therapeutic dose (30˜40 mg/kg) for continuous treatment.
[18] = test system: H460 cells; test: SRB cell growth assay, combination with mTOR inhibitor; format: cell-based, human; conditions: BDA-366 100 nM, RAD001 1 nM, alone or in combination, 72 hr
Procedure: Cell growth was analyzed by sulforhodamine B (SRB) colorimetric assay.

[19] = test system: human lung cancer cell lines; test: sensitivity of lung cancer cell lines versus ABT-737; format: cell-based

Chain of purified, human Bcl2 protein (P10415 whole entry, the tested form may be a part): as the sequence (P10415 whole entry) above

Which Ki [1] does the source give for `CCN(CC)CC(O)CNc1ccc(NCC2CO2)c2c1C(=O)c1ccccc1C2=O` (centres unmarked) [BDA-366, 1-((3-(diethylamino)-2-hydroxypropyl)amino)-4-((oxiran-2-ylmethyl)amino)anthracene-9,10-dione] here?
The Ki was 0.93 ± 0.08 nM.

And the “binding to ΔBH4 Bcl2” value [2]?
The value was “failed to bind”.

What about the Ki ([3]; fluorescent Bak peptide, WT Bcl2) of the same molecule?
The Ki was 3.3 ± 0.73 nM.

What about the “inhibitory constant (Ki) value” ([3]; purified Bcl2 protein, BH4 domain) of the same molecule?
Its value is “nanomolar level”.

And the “binding after deletion of BH1” value [4]?
Its value is “did not significantly affect its BDA-2 binding”.

What about the “binding after deletion of BH2” value [5] of the same molecule?
The value was “did not significantly affect its BDA-2 binding”.

What about the “binding after deletion of BH3” value [6] of the same molecule?
The value was “did not significantly affect its BDA-2 binding”.

And the “binding to Bfl-1/A1” value [7]?
The value was “failed to bind”.

What about the “binding to Bfl-1/A1” value ([7]; listed as BDA-2) of the same molecule?
Its value is “did not bind”.

What about the “binding to single-site Bcl2 mutants” value [8] of the same molecule?
Its value is “did not significantly reduce Bcl2's ability to bind BDA-2”.

What about the “binding to AAAA Bcl2 mutant protein” value [9] of the same molecule?
The value was “remarkably decreased BDA-2 binding”.

What about the sensitivity of cells [10] of the same molecule?
Its sensitivity of cells is “less sensitive”.

What about the “sensitivity of cells overexpressing WT or single site Bcl2 mutants” value [11] of the same molecule?
The value was “enhanced sensitivity”.

What about the “cell survival on exposure, AAAA mutant overexpressed” value [12] of the same molecule?
Its value is “significantly prolonged cell survival”.

And the “Bax binding to 6A7 antibody induced by compound-treated Bcl2” value ([13]; Bcl2 treated 1 h, then Bax 2 h)?
Its value is “enhanced the ability of Bax to bind to 6A7 antibody”.

What about the “Bax activation by WT Bcl2 in the presence of compound” value ([13]; WT Bcl2) of the same molecule?
The value was “can activate Bax via 6A7 conformational change”.

What about the “direct activation of Bax” value ([13]; without Bcl2) of the same molecule?
Its value is “not a direct Bax activator”.

What about the “Bax activation by ΔBH3 mutant Bcl2 in the presence of compound” value ([13]; ΔBH3 mutant Bcl2) of the same molecule?
The value was “not”.

And the Bcl2/Bax interaction [14]?
Its Bcl2/Bax interaction is “enhanced Bcl2/Bax interaction”.

What about the Bcl2/Bim binding [14] of the same molecule?
The Bcl2/Bim binding was “decreased Bcl2/Bim binding”.

And the “Cyt c release from isolated mitochondria” value ([15]; WT Bcl2, 1 μM, 30 min at 30° C.)?
Its value is “induced Cyt c release”.

And the “Bcl2 conformational change and Bax activation” value ([15]; cells or isolated mitochondria containing WT Bcl2)?
Its value is “induced Bcl2 conformational change in association with Bax activation”.

What about the “Bcl2 conformational change and Bax activation” value ([15]; ΔBH3 Bcl2 mutant or vector-only control) of the same molecule?
The value was “not”.

What about the “resistance of Bax deficient MEF cells compared to WT MEF cells” value [16] of the same molecule?
Its value is “significantly resistant”.

And the “time within which dose was uniformly lethal” value ([17]; 40 mg/kg/d i.p.)?
Its value is ≤ 8 days.

And the “time within which dose was uniformly lethal” value ([17]; 50 mg/kg/d i.p.)?
Its value is “up to 12 days”.

And the tolerability ([17]; 10 to 30 mg/kg/d i.p., up to 12 days)?
The tolerability was “tolerable with no death recorded”.

What about the cell growth inhibition [18] of the same molecule?
Its cell growth inhibition is “partially inhibited lung cancer cell growth”.

And the “sensitivity of most human lung cancer cell lines relative to ABT-737” value [19]?
Its value is “more sensitive to BDA2 than ABT-737”.
